Measured values published in PMC4325472, “An Expedient Synthesis, Acetylcholinesterase Inhibitory Activity, and Molecular Modeling Study of Highly Functionalized Hexahydro-1,6-naphthyridines” (BioMed Research International, 2015).

target: T1, acetylcholinesterase enzyme from Electrophoruselectricus (AChE enzyme from electric eel) (Electrophorus electricus, UniProt O42275); experiment: biochemical; settings: not given
T1 construct: purchased Sigma
Procedure: Cholinesterase inhibitory activity of the synthesized compounds was evaluated using the Ellman's microplate assay. For acetylcholinesterase (AChE) inhibitory assay, 140 μL of 0.1 M sodium phosphate buffer (pH 8) was first added to a 96-well microplate followed by 20 μL of test samples and 20 μL of 0.09 units/mL acetylcholinesterase enzyme from Electrophoruselectricus (Sigma). After 15 minutes of incubation at 25°C, 10 μL of 10 mM 5,5′-dithiobis-2-nitrobenzoic acid (DTNB) was added into each well followed by 10 μL of acetylthiocholine iodide (14 mM). At 30 minutes after the initiation of enzymatic reaction, absorbance of the colored end-product was measured using BioTek Power Wave X 340 Microplate Spectrophotometer at 412 nm.
Galantamine was used as positive control. Test samples and galantamine were prepared in DMSO at an initial concentration of 1 mg/mL (1000 ppm). The concentration of DMSO in final reaction mixture was 1%.
The initial screening was carried out at 10 μg/mL of test samples in 1% DMSO and each test was conducted in triplicate. Absorbencies of the test samples were corrected by subtracting the absorbance of their respective blank. Percentage enzyme inhibition is calculated using the following formula: (1) Percentage of inhibition =[…]/Absorbance of control×100. Subsequently, the determination of IC50 was carried out using a set of five concentrations.
All newly synthesized 1,6-naphthyridines were evaluated in vitro for their inhibitory potential against AChE enzyme from electric eel using colorimetric Ellman's method (Table 1).

T1 sequence (O42275 24-633): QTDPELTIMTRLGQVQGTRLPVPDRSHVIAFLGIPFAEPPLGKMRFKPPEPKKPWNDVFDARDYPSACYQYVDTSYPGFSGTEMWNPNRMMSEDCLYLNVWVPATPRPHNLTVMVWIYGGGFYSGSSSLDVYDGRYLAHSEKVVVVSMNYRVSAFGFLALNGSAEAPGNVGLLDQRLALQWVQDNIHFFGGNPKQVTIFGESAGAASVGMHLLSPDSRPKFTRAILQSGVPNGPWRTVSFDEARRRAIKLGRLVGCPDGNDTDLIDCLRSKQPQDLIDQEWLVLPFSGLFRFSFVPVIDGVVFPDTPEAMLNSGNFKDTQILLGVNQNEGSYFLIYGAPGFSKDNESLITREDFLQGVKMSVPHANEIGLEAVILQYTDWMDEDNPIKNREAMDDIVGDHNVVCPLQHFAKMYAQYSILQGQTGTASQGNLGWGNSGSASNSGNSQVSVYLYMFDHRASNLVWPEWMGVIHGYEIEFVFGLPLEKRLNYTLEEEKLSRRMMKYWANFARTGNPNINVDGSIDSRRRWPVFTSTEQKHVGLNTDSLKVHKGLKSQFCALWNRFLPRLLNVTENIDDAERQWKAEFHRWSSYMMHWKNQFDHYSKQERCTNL

For `N#Cc1c(-c2cccc([N+](=O)[O-])c2)c2c([nH]c1=O)/C(=C/c1cccc([N+](=O)[O-])c1)CNC2` [4g, (E)-8-(3-Nitrobenzylidene)-4-(3-nitrophenyl)-2-oxo-1,2,5,6,7,8-hexahydro-1,6-naphthyridine-3-carbonitrile], which IC50 is on record?
Its IC50 is 16.86 ± 0.02 µM.

same assay, conditions: Ellman's method, AChE from electric eel, triplicate, five concentrations; read-out: AChE inhibition (IC50 ± SD)

`N#Cc1c(-c2ccccc2Br)c2c([nH]c1=O)/C(=C/c1ccccc1Br)CNC2` [4d, (E)-8-(2-Bromobenzylidene)-4-(2-bromophenyl)-2-oxo-1,2,5,6,7,8-hexahydro-1,6-naphthyridine-3-carbonitrile] was tested. Which IC50 did it give?
The IC50 was 18.16 ± 0.02 µM.

Which IC50 does the source give for `Cc1ccccc1/C=C1\CNCc2c1[nH]c(=O)c(C#N)c2-c1ccccc1C` [4b, (E)-8-(2-Methylbenzylidene)-2-oxo-4-(o-tolyl)-1,2,5,6,7,8-hexahydro-1,6-naphthyridine-3-carbonitrile] here?
Its IC50 is 7.2 ± 0.02 µM.

Which IC50 does the source give for `N#Cc1c(-c2ccc(Cl)cc2Cl)c2c([nH]c1=O)/C(=C/c1ccc(Cl)cc1Cl)CNC2` [4f, (E)-8-(2,4-Dichlorobenzylidene)-4-(2,4-dichlorophenyl)-2-oxo-1,2,5,6,7,8-hexahydro-1,6-naphthyridine-3-carbonitrile] here?
The IC50 was 24.72 ± 0.01 µM.

For `N#Cc1c(-c2ccccc2)c2c([nH]c1=O)/C(=C/c1ccccc1)CNC2` [4a, (E)-8-Benzylidene-2-oxo-4-phenyl-1,2,5,6,7,8-hexahydro-1,6-naphthyridine-3-carbonitrile], which IC50 is on record?
Its IC50 is 11.18 ± 0.02 µM.

For `N#Cc1c(-c2cccc3ccccc23)c2c([nH]c1=O)/C(=C/c1cccc3ccccc13)CNC2` [4k, (E)-4-(Naphthalen-1-yl)-8-(naphthalen-1-ylmethylene)-2-oxo-1,2,5,6,7,8-hexahydro-1,6-naphthyridine-3-carbonitrile], which IC50 is on record?
Its IC50 is 6.86 ± 0.02 µM.

Which IC50 does the source give for `N#Cc1c(-c2ccccc2Cl)c2c([nH]c1=O)/C(=C/c1ccccc1Cl)CNC2` [4c, (E)-8-(2-Chlorobenzylidene)-4-(2-chlorophenyl)-2-oxo-1,2,5,6,7,8-hexahydro-1,6-naphthyridine-3-carbonitrile] here?
The IC50 was 15.21 ± 0.1 µM.

For `COc1ccccc1/C=C1\CNCc2c1[nH]c(=O)c(C#N)c2-c1ccccc1OC` [4e, (E)-8-(2-Methoxybenzylidene)-4-(2-methoxyphenyl)-2-oxo-1,2,5,6,7,8-hexahydro-1,6-naphthyridine-3-carbonitrile], which IC50 is on record?
The IC50 was 2.12 ± 0.02 µM.

For `N#Cc1c(-c2ccc(Cl)cc2)c2c([nH]c1=O)/C(=C/c1ccc(Cl)cc1)CNC2` [4i, (E)-8-(4-Chlorobenzylidene)-4-(4-chlorophenyl)-2-oxo-1,2,5,6,7,8-hexahydro-1,6-naphthyridine-3-carbonitrile], which IC50 is on record?
The IC50 was 3.86 ± 0.02 µM.

With `Cc1ccc(/C=C2\CNCc3c2[nH]c(=O)c(C#N)c3-c2ccc(C)cc2)cc1` [4h, (E)-8-(4-Methylbenzylidene)-2-oxo-4-(p-tolyl)-1,2,5,6,7,8-hexahydro-1,6-naphthyridine-3-carbonitrile] as the molecule, how does the IC50 read?
The IC50 was 7.16 ± 0.02 µM.

`N#Cc1c(-c2ccc(F)cc2)c2c([nH]c1=O)/C(=C/c1ccc(F)cc1)CNC2` [4j, (E)-8-(4-Fluorobenzylidene)-4-(4-fluorophenyl)-2-oxo-1,2,5,6,7,8-hexahydro-1,6-naphthyridine-3-carbonitrile] was tested. Which IC50 did it give?
The IC50 was 14.16 ± 0.02 µM.
